Results on four compounds are retold here after patent publication US20100069319A1, “Mercaptopurine derivatives and uses thereof” (priority 2007, published 2010).

One series deals with Molt-4. As to the kind of experiment: Anti-proliferative concentration IC50 (Table 2). Format: cell-based. The note with it: Molt-4, 16 h, tested at 0-100 μM, read-out: Anti-proferative concentration - IC50 (mean ± SE). Here is the method:
(§1) Cell proliferation was determined by the XTT viability assay in 96-well plates, based on the reduction of tetrazolium salt to soluble formazan compounds by living cells. Cells (10,000-15,000 cells/well) were seeded in a 96-well plate. After 16 h incubation with various concentrations of 6-MP, 6-MPR and their S-allylthio-derivatives, 50 μl of XTT/PMS mixture (50 μM PMS, 0.1% XTT in medium) was added onto the cells. After an incubation period of 3-4 h at 37° C. the absorbance of the samples was measured in an ELISA Reader at 450 nm. SDS (1%, 10 μl/well) was added to reference wells before adding the XTT/PMS solution.
(§2) The results of viability and proliferation were expressed as mean values±SD (n=3-6). For each cell line, the results were analyzed using two-way analysis of variance (ANOVA) followed by Bonferroni's posttest for the factors of the drugs used and their various concentrations, considering p<0.05 as significant. IC50 values (mean±SEM) were obtained from the linear range of the viability curve versus drug concentration (XTT assay).
(§3) In particular, cell in suspension, namely, Daudi, HL-60, U937, Molt-4, Jurkat and B-CLL, were tested at prodrug concentration of 0-100 μM, and monolayer cells, namely, Hela HtTA-1, MDR HT-29 and N87, were tested at prodrug concentration of 0-200 μM. in both cases, cell viability was determined by trypan blue dye exclusion assay. Data are presented in Table 2 hereinbelow for 6MP derivatives-treated for 16 h.

The next series relates to Daudi. As to the kind of experiment: Anti-proliferative concentration IC50 (Table 2). Format: cell-based. The note with it: 16 h, tested at 0-100 μM, read-out: Anti-proferative concentration - IC50 (mean ± SE). As to the method:
as §1, §2, §3

The subject of the next series is MDR HT-29. As to the kind of experiment: Anti-proliferative concentration IC50 (Table 2). The note with it: MDR HT-29, 16 h, tested at 0-200 μM, read-out: Anti-proferative concentration - IC50 (mean ± SE). Format: cell-based, human. Here is the method: as §1, §2, §3
In the next series the test system is N87. The series is described as follows: Anti-proliferative concentration IC50 (Table 2). Format: cell-based, human. The conditions noted are these: N87, 16 h, tested at 0-200 μM, read-out: Anti-proferative concentration - IC50 (mean ± SE). As to the method:
as §1, §2, §3

A further series has as its system U937. The series is described as follows: Anti-proliferative concentration IC50 (Table 2). Format: cell-based, human. The note with it: U937, 16 h, tested at 0-100 μM, read-out: Anti-proferative concentration - IC50 (mean ± SE). As to the method: as §1, §2, §3
A further series relates to Jurkat. The series is described as follows: Anti-proliferative concentration IC50 (Table 2). The note with it: 16 h, tested at 0-100 μM, read-out: Anti-proferative concentration - IC50 (mean ± SE). Format: cell-based, human. Here is the method:
as §1, §2, §3

A further series relates to Hela. As to the kind of experiment: Anti-proliferative concentration IC50 (Table 2). Format: cell-based, human. The conditions noted are these: 16 h, tested at 0-200 μM, read-out: Anti-proferative concentration - IC50 (mean ± SE). Here is the method: as §1, §2, §3
Another series has as its system HL-60. As to the kind of experiment: Anti-proliferative concentration IC50 (Table 2). Format: cell-based, human. The conditions noted are these: HL-60, 16 h, tested at 0-100 μM, read-out: Anti-proferative concentration - IC50 (mean ± SE). As to the method: as §1, §2, §3
Another series has as its system Daudi cells. As to the kind of experiment: XTT cell proliferation assay. Format: cell-based. The conditions noted are these: 16 h. Here is the method:
as §1
(§4) The inhibitory effects of the various prodrugs on Daudi leukemia cell and on monolayer N87 cells were compared. […] XTT was added to the wells for 3 h at 37° C. Cell viability was monitored using an ELISA reader at 450 nm, as described in Materials and Methods.

The test system of another series is N87 cells. The series is described as follows: XTT cell proliferation assay. Format: cell-based, human. The note with it: 16 h. Here is the method:
as §1, §4

The next series deals with B-CLL cells. The note with it: 48 h, read-out: calculated IC50 for allicin induced-apoptosis; cited from earlier work.
The test system of series [1] is human peripheral blood mononuclear cells (PBMCs). The conditions noted are these: after 4 days of treatment, read-out: IC50, T-cell mitogen-induced blastogenesis; cited from earlier work.

The structures appear in SMILES notation. Where two headings read alike, the source gives them in different places. A value given as a limit tells only on which side of the number the result lay.

In the case of `C=CCSSc1ncnc2c1ncn2[C@@H]1O[C@H](CO)[C@@H](O)[C@H]1O` [SA-6MPR, S-allylthio-6-mercaptopurine 9-riboside], the IC50 was 16.9 ± 2.3 µM with Molt-4; 70.8 ± 7.8 µM with Daudi; greater than 200 µM with MDR HT-29; 120 ± 15.6 µM with N87; 113 ± 10.9 µM with U937; 69.1 ± 7.5 µM with Jurkat. For the same compound, the IC50 in the series with Hela is greater than 200 µM; with HL-60 it was 86.1 ± 9.5 µM. Besides, the values for the residual proliferation with Daudi cells (50 μM) and with Daudi cells (100 μM) were 60% and 25%, respectively. Moreover, the “residual proliferation / viability” value with N87 cells (N87, 50 μM) is reported as “about 70%”. In the series with N87 cells (N87, 100 μM), this compound gave a residual viability of roughly 55%. Moreover, the “proliferation” value in the series on N87 cells (N87, 150 μM) was “complete loss of proliferation”.
As to `C=CCS[S+]([O-])CC=C` (stereo not drawn) [Allicin, reference compound], the IC50 in the series on Daudi (Homo sapiens) is 35.3 ± 4.2 µM; with MDR HT-29 (Homo sapiens), 83.8 ± 7.8 µM; with N87 (Homo sapiens) it was 16.8 ± 3.3 µM; in the series with U937 (Homo sapiens, U-937), 19.7 ± 2.1 µM; in the series with Hela (Homo sapiens), 104 ± 10.2 µM; in the series on HL-60 (Homo sapiens), 5.5 ± 0.6 µM. Further, the IC50 in the series on B-CLL cells is 20 nM.
On to `Cn1cnc([N+](=O)[O-])c1Sc1ncnc2nc[nH]c12` [AZ, azathioprine], for which the IC50 in series [1] was 230 ± 231 nM.
In the case of `OC[C@H]1O[C@@H](n2cnc3c(S)ncnc32)[C@H](O)[C@@H]1O` [6-MPR, 6-mercaptopurine riboside, reference compound], the IC50 in the series on Molt-4 (Homo sapiens) was 24.8 ± 2.5 µM; with U937 (Homo sapiens, U-937), greater than 200 µM; with Jurkat (Homo sapiens), 99 ± 11.9 µM. For the same compound, the “cell proliferation” value in the series on Daudi cells (0-100 μM) is on record as “no significant loss of cell proliferation”; in the series with N87 cells (N87, 0-100 μM), “no significant loss of cell proliferation”. The “proliferation (residual)” value in the series on N87 cells (N87, 150 μM) was roughly 75%.
